Counter-ions that a name gives are not always drawn.
Experiments:
[1] = test system: Klebsiella pneumoniae expressing KPC-1 (CL6569); experiment: Antibiotic activity: growth inhibitory concentration (OD600), Klebsiella pneumoniae CL6569; format: cell-based; conditions: lowest concentration inhibiting 95% of bacterial growth; in the presence of β lactamase inhibitor Relebactam 4 μg/mL; 35±2° C. for 22 hours; tested range 100 μM to 0.098 μM
How it was run: (§1)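 Clinical strains at ~2×10^5 CFU/mL in cation-adjusted Mueller-Hinton II broth, with relebactam at 4 μg/mL final; compounds 100 μM to 0.098 μM final. After 22 hours at 35±2° C, OD600 read; MITC95 is lowest concentration giving 95% growth inhibition.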

[2] = test system: Pseudomonas aeruginosa expressing AmpC (CL5701); experiment: Antibiotic activity: growth inhibitory concentration (OD600), Pseudomonas aeruginosa CL5701; format: cell-based; conditions: lowest concentration inhibiting 95% of bacterial growth; in the presence of β lactamase inhibitor Relebactam 4 μg/mL; 35±2° C. for 22 hours; tested range 100 μM to 0.098 μM
How it was run: as §1

Structure (SMILES): C[n+]1cc(-c2ccc(OC[C@H](O/N=C(\C(=O)N[C@@H]3C(=O)N(OS(=O)(=O)[O-])C3(C)C)c3nc(N)sc3Cl)C(=O)O)cc2F)ccc1NCCN [Example 69, (S)-3-((Z)-2-(2-amino-5-chlorothiazol-4-yl)-2-(((S)-2-(4-(6-((2-aminoethyl)amino)-1-methylpyridin-1-ium-3-yl)-3-fluorophenoxy)-1-carboxyethoxy)imino)acetamido)-2,2-dimethyl-4-oxoazetidin-1-yl sulfate]
- KP_CL6569 MITC95 [1]: 0.3906 µM
- PA_CL5701 MITC95 [2]: 3.125 µM

Structure (SMILES): CCOC(=O)[C@H](COc1ccc(-c2cn(CCCN)c(=N)n2C)cc1)O/N=C(\C(=O)N[C@@H]1C(=O)N(OS(=O)(=O)O)C1(C)C)c1csc(N)n1 [Example 116, Ethyl (S)-3-(4-(1-(3-aminopropyl)-2-imino-3-methyl-2,3-dihydro-1H-imidazol-4-yl)phenoxy)-2-((((Z)-1-(2-aminothiazol-4-yl)-2-(((S)-2,2-dimethyl-4-oxo-1-(sulfooxy)azetidin-3-yl)amino)-2-oxoethylidene)amino)oxy)propanoate]
- KP_CL6569 MITC95 [1]: 6.25 µM
- PA_CL5701 MITC95 [2]: 50 µM

Structure (SMILES): C[n+]1c(-c2ccc(OC[C@H](O/N=C(\C(=O)N[C@@H]3C(=O)N(OS(=O)(=O)O)C3(C)C)c3csc(N)n3)C(=O)O)cc2)ccn1CCCN.O=C([O-])C(F)(F)F [Example 18, 1-(3-aminopropyl)-3-(4-((S)-2-((((Z)-1-(2-aminothiazol-4-yl)-2-(((S)-2,2-dimethyl-4-oxo-1-(sulfooxy)azetidin-3-yl)amino)-2-oxo-ethylidene)amino)oxy)-2-carboxyethoxy)phenyl)-2-methyl-1H-pyrazol-2-ium 2,2,2-trifluoroacetate]
- KP_CL6569 MITC95 [1]: 0.3906 µM
- PA_CL5701 MITC95 [2]: 6.25 µM

Structure (SMILES): Cc1cn(CCCN)[n+](C)c1-c1ccc(OC[C@H](O/N=C(\C(=O)N[C@@H]2C(=O)N(OS(=O)(=O)O)C2(C)C)c2csc(N)n2)C(=O)O)cc1.O=C([O-])C(F)(F)F [Example 19, 1-(3-aminopropyl)-3-(4-((S)-2-((((Z)-1-(2-aminothiazol-4-yl)-2-(((S)-2,2-dimethyl-4-oxo-1-(sulfooxy)azetidin-3-yl)amino)-2-oxo-ethylidene)amino)oxy)-2-carboxyethoxy)phenyl)-2,4-dimethyl-1H-pyrazol-2-ium 2,2,2-trifluoroacetate]
- KP_CL6569 MITC95 [1]: 0.7813 µM
- PA_CL5701 MITC95 [2]: 12.5 µM

Structure (SMILES): CC1(C)[C@H](NC(=O)/C(=N\O[C@@H](COc2ccc(Oc3cc[n+](CCCN)cc3)nc2)C(=O)O)c2csc(N)n2)C(=O)N1OS(=O)(=O)O.O=C([O-])C(F)(F)F [Example 34, 1-(3-aminopropyl)-4-((5-((S)-2-((((Z)-1-(2-aminothiazol-4-yl)-2-(((S)-2,2-dimethyl-4-oxo-1-(sulfooxy)azetidin-3-yl)amino)-2-oxoethylidene)amino)oxy)-2-carboxyethoxy)pyridin-2-yl)oxy)pyridin-1-ium 2,2,2-trifluoroacetate]
- KP_CL6569 MITC95 [1]: 0.78 µM
- PA_CL5701 MITC95 [2]: 25 µM

Structure (SMILES): C[n+]1cc(-c2ccc(OC[C@](C)(O/N=C(\C(=O)N[C@@H]3C(=O)N(OS(=O)(=O)O)C3(C)C)c3csc(N)n3)C(=O)O)cc2)ccc1NCCN [Example 87, (S)-3-((Z)-2-((((S)-1-(4-(6-((2-aminoethyl)amino)-1-methylpyridin-1-ium-3-yl)phenoxy)-2-carboxypropan-2-yl)oxy)imino)-2-(2-aminothiazol-4-yl)acetamido)-2,2-dimethyl-4-oxoazetidin-1-yl sulfate]
- KP_CL6569 MITC95 [1]: 0.1953 µM
- PA_CL5701 MITC95 [2]: 3.125 µM

Structure (SMILES): C[n+]1cn(CCCN)cc1-c1ccc(OC[C@H](O/N=C(\C(=O)NC2C(=O)N(OS(=O)(=O)[O-])C2(C)C)c2csc(N)n2)C(=O)O)cc1 (stereo partly drawn) [Example 2, (S)-3-((Z)-2-(2-aminothiazol-4-yl)-2-(((S)-2-(4-(1-(3-ammoniopropyl)-3-methyl-1H-imidazol-3-ium-4-yl)phenoxy)-1-carboxyethoxy)imino)acetamido)-2,2-dimethyl-4-oxoazetidin-1-yl-sulfate]
- KP_CL6569 MITC95 [1]: 0.3906 µM
- PA_CL5701 MITC95 [2]: 3.125 µM

Structure (SMILES): C[n+]1cc(-c2ccc(OC[C@H](O/N=C(\C(=O)N[C@@H]3C(=O)N(OS(=O)(=O)O)C3(C)C)c3csc(N)n3)C(=O)O)cc2)cn1CCCNCCCN [Example 104, (S)-3-((E)-2-(((S)-2-(4-(1-(3-((3-aminopropyl)amino)-propyl)-2-methyl-1H-pyrazol-2-ium-4-yl)phenoxy)-1-carboxyethoxy)imino)-2-(2-aminothiazol-4-yl)acetamido)-2,2-dimethyl-4-oxoazetidin-1-yl sulfate, 3TFA]
- KP_CL6569 MITC95 [1]: 0.1953 µM
- PA_CL5701 MITC95 [2]: 6.25 µM

Structure (SMILES): C[C@@H](COc1ccc(-c2ccc(NCCN)[n+](C)c2)cc1)O/N=C(\C(=O)N[C@@H]1C(=O)N(OS(=O)(=O)O)C1(C)C)c1csc(N)n1 [Example 90, (S)-3-((Z)-2-((((S)-1-(4-(6-((2-aminoethyl)amino)-1-methylpyridin-1-ium-3-yl)phenoxy)propan-2-yl)oxy)imino)-2-(2-aminothiazol-4-yl)acetamido)-2,2-dimethyl-4-oxoazetidin-1-yl sulfate]
- KP_CL6569 MITC95 [1]: 1.563 µM
- PA_CL5701 MITC95 [2]: 25 µM

Structure (SMILES): C[n+]1cc(-c2ccc(OC[C@H](O/N=C(\C(=O)N[C@@H]3C(=O)N(OS(=O)(=O)O)C3(C)C)c3csc(N)n3)C(=O)O)cc2F)cn1CC(O)CN.O=CO (stereo partly drawn) [Example 44, (3S)-3-((Z)-2-(((1S)-2-(4-(1-(3-amino-2-hydroxypropyl)-2-methyl-1H-pyrazol-2-ium-4-yl)-3-fluorophenoxy)-1-carboxyethoxy)imino)-2-(2-aminothiazol-4-yl)acetamido)-2,2-dimethyl-4-oxoazetidin-1-yl sulfate compound with formic acid (1:1)]
- KP_CL6569 MITC95 [1]: 0.1953 µM
- PA_CL5701 MITC95 [2]: 3.125 µM

Structure (SMILES): CC1(C)[C@H](NC(=O)/C(=N\O[C@@H](COc2ccc(-c3ccnc(NCCCN)c3)cc2)C(=O)O)c2csc(N)n2)C(=O)N1OS(=O)(=O)O [Example 64, (S)-3-((Z)-2-(((S)-2-(4-(2-((3-aminopropyl)amino)pyridin-4-yl)phenoxy)-1-carboxyethoxy)imino)-2-(2-aminothiazol-4-yl)acetamido)-2,2-dimethyl-4-oxoazetidin-1-yl sulfate]
- KP_CL6569 MITC95 [1]: 1.563 µM
- PA_CL5701 MITC95 [2]: 12.5 µM

Structure (SMILES): CC1(C)[C@H](NC(=O)/C(=N\O[C@@H](COc2ccc(-c3cnn(CC[N+]4(C)CCOCC4)c3)cc2)C(=O)O)c2csc(N)n2)C(=O)N1OS(=O)(=O)O.O=C([O-])C(F)(F)F [Example 14, 4-(2-(4-(4-((S)-2-((((Z)-1-(2-aminothiazol-4-yl)-2-(((S)-2,2-dimethyl-4-oxo-1-(sulfooxy)azetidin-3-yl)amino)-2-oxoethylidene)amino)oxy)-2-carboxyethoxy)phenyl)-1H-pyrazol-1-yl)ethyl)-4-methylmorpholin-4-ium 2,2,2-trifluoroacetate]
- KP_CL6569 MITC95 [1]: 0.7813 µM
- PA_CL5701 MITC95 [2]: 12.5 µM

Structure (SMILES): CC1(C)[C@H](NC(=O)/C(=N\O[C@@H](COc2ccc(-c3cc(CNCCN)n(CCCN)n3)cc2)C(=O)O)c2csc(N)n2)C(=O)N1OS(=O)(=O)O [Example 125, (S)-3-(4-(5-(((2-Aminoethyl)amino)methyl)-1-(3-aminopropyl)-1H-pyrazol-3-yl)phenoxy)-2-((((Z)-1-(2-aminothiazol-4-yl)-2-(((S)-2,2-dimethyl-4-oxo-1-(sulfooxy)azetidin-3-yl)amino)-2-oxoethylidene)amino)oxy)propanoic acid]
- KP_CL6569 MITC95 [1]: 0.39 µM
- PA_CL5701 MITC95 [2]: 3.125 µM

Structure (SMILES): CC1(C)[C@H](NC(=O)/C(=N\O[C@@H](COc2ccc(-c3cc(CN)n(CCCN)n3)cc2)C(=O)O)c2csc(N)n2)C(=O)N1OS(=O)(=O)O [Example 126, (S)-3-(4-(5-(Aminomethyl)-1-(3-aminopropyl)-1H-pyrazol-3-yl)phenoxy)-2-((((Z)-1-(2-aminothiazol-4-yl)-2-(((S)-2,2-dimethyl-4-oxo-1-(sulfooxy)azetidin-3-yl)amino)-2-oxoethylidene)amino)oxy)propanoic acid]
- KP_CL6569 MITC95 [1]: 0.39 µM
- PA_CL5701 MITC95 [2]: 3.125 µM

Structure (SMILES): C[n+]1cc(-c2ccc(OC[C@H](O/N=C(\C(=O)N[C@@H]3C(=O)N(OS(=O)(=O)O)C3(C)C)c3csc(N)n3)C(=O)O)c(F)c2)cn1CCCN [Example 15, 1-(3-aminopropyl)-4-(4-((S)-2-((((Z)-1-(2-aminothiazol-4-yl)-2-(((S)-2,2-dimethyl-4-oxo-1-(sulfooxy)azetidin-3-yl)amino)-2-oxo-ethylidene)amino)oxy)-2-carboxyethoxy)-3-fluorophenyl)-2-methyl-1H-pyrazol-2-ium, TFA salt (1:1)]
- KP_CL6569 MITC95 [1]: 0.3906 µM
- PA_CL5701 MITC95 [2]: 6.25 µM

Structure (SMILES): CC1(C)[C@H](NC(=O)/C(=N\O[C@@H](COc2ccc(-c3cn(CCCN)[n+](CC4(F)CNC4)c3)cc2)C(=O)O)c2csc(N)n2)C(=O)N1OS(=O)(=O)[O-] [Example 119, (S)-3-((Z)-2-(((S)-2-(4-(1-(3-aminopropyl)-2-((3-fluoroazetidin-3-yl)methyl)-1H-pyrazol-2-ium-4-yl)phenoxy)-1-carboxyethoxy)imino)-2-(2-aminothiazol-4-yl)acetamido)-2,2-dimethyl-4-oxoazetidin-1-yl sulfate]
- KP_CL6569 MITC95 [1]: 0.3906 µM
- PA_CL5701 MITC95 [2]: 6.25 µM

Structure (SMILES): CC1(C)[C@H](NC(=O)/C(=N\O[C@@H](COc2ccc(-n3ccn(CCCN)c3=N)nc2)C(=O)O)c2csc(N)n2)C(=O)N1OS(=O)(=O)O [Example 118, (S)-3-((6-(3-(3-aminopropyl)-2-imino-2,3-dihydro-1H-imidazol-1-yl)pyridin-3-yl)oxy)-2-((((Z)-1-(2-aminothiazol-4-yl)-2-(((S)-2,2-dimethyl-4-oxo-1-(sulfooxy)azetidin-3-yl)amino)-2-oxoethylidene)amino)oxy)propanoic acid]
- KP_CL6569 MITC95 [1]: 0.3906 µM
- PA_CL5701 MITC95 [2]: 6.25 µM

Reference: US11230543B2, “Biaryl monobactam compounds and methods of use thereof for the treatment of bacterial infections” (priority 2015, dated 2022)
